Results on seven molecules are retold here after US20230120211A1, “HDAC Degrader” (University of Leicester, priority 2020, published 2023).

Test [1] concerns H3K56ac. In words: H3K56ac levels in E14 mouse embryonic stem cells, quantitative western blot. The class given is cell-based. The settings on record: E14 mES cells, 24 h; CI-994 40 μM, Panobinostat 30 nM. As to the method: The inventors proceeded to assess their compounds effects on HDAC activity in cells.
To examine the ability of PROTACs 1-4 to reduce HDAC1, 2 and 3 activity in cells they began by measuring H3K56ac using quantitative western blotting (see FIG. 3B).
(§1) HCT116 or mES cells were treated 24 hours after seeding. 24 hours post treatment, cells were harvested, lysed in lysis buffer (50 mM Tris-HCl, 150 mM NaCl, 0.5% NP-40, 0.5% Triton X-100) with protease inhibitor (Sigma, P8340), then incubated on ice for 30 minutes, before being centrifuged (18,000 ref, 15 minutes, 4° C.). The supernatant was collected, and protein concentrations quantified via Bradford Assay using Protein Assay Dye Reagent Concentrate (BIO-RAD). For histone extraction, an equal volume of 0.4 N H2SO4 was added to the pellets and the extracts placed at 4° C. overnight. Following overnight incubation, the tubes were centrifuged (18,000 ref, 15 minutes, 4° C.) and then the supernatant (histone extract) collected.
(§2) Western blots were run on NuPAGE™ 4-12% Bis-Tris gels with 20-30 μg of protein or 10 μL of acid-extracted histone loaded per lane, using NuPAGE™ LDS Sample Buffer (4×). PageRuler™ Plus Prestained Ladder was used for size standards. After gel electrophoresis at 140V for 75-90 minutes the separated proteins were transferred onto nitrocellulose membrane at 30V for 60 minutes. The membranes were probed with primary antibodies (listed below) for 60-90 minutes. Blots were developed with complimentary IRDye conjugated secondary antibodies and the bands visualised using the Odyssey Infrared Imaging System. Image processing and band intensity quantification was performed using Image Studio Lite.
For orientation: In western blotting, separated proteins are transferred to a membrane and probed.

Test [2] addresses LSD1-CoREST-HDAC1 complex (Homo sapiens, UniProt Q13547). The experiment in a line: fluorescent deacetylase assay with the LSD1-CoREST-HDAC1 complex (Example 2, FIG. 3A). Type of test: biochemical. The settings on record: LSD1-CoREST-HDAC1 complex. As to the method:
The inventors evaluated their preliminary PROTACs in vitro using an established fluorescent deacetylase assay with the LSD1-CoREST-HDAC1 complex. This complex was used as an exemplary HDAC multiprotein complex to determine if such heterobifunctional molecules PROTACs 1-4 can still engage the HDAC enzyme in the context of an intact multiprotein complex.
(§3) Inhibition tests against LSD1-HDAC-CoREST complex were performed using a two-enzyme fluorescence-based HDAC assay. The inhibitor/PROTACs were dissolved at 50 mM in DMSO, then 1:2 serial dilutions performed using HDAC assay buffer (50 mM Tris pH 7.5, 150 mM NaCl) to afford range of concentrations.
(§4) The assays were performed in black 96-well plates with a reaction volume of 50 μL per well. All determinations were performed in triplicate. […] After an incubation of 20 minutes at 37° C. and 150 rpm, deacetylation was stopped by the addition of 50 μL of a developing solution containing trypsin (50 mM Tris pH 7.5, 100 mM NaCl, 10 mg/mL trypsin). […] HDAC Activity was calculated by subtracting the average blank fluorescence from the well fluorescence. Graphpad Prism software was utilised to determine IC50 values.

A further test has as its target T1, HDAC2 (Homo sapiens, UniProt Q92769).
T1 construct: endogenous in cells; host or cells: HCT116
In words: HDAC2 degradation in HCT116 cells, quantitative western blot. The class given is cell-based. The settings on record: HCT116, screened at 0.1, 1 and 10 μM, maximum degradation irrespective of concentration; for Dmax: HCT-116, 24 h, read-out: HDAC 2 Degrader (% Degradation). The method, then: (§5) The compounds were screened at 0.1 μM, 1 μM and 10 μM in a HCT116 cell line. The maximum degradation observed irrespective of the concertation was recorded. The screening of the new compounds was done in 6-well plates, 5 mL media, with 400,000 cells per well to increase throughput.
as §1
(§6) PageRuler™ Plus Prestained Ladder was used for size standards. After gel electrophoresis at 140V for 75-90 minutes the separated proteins were transferred onto nitrocellulose membrane at 30V for 60 minutes. The membranes were probed with primary antibodies (listed below) for 60-90 minutes. Blots were developed with complimentary IRDye conjugated secondary antibodies and the bands visualised using the Odyssey Infrared Imaging System. Image processing and band intensity quantification was performed using Image Studio Lite.

Test [3] deals with H3K56Ac. In words: Increase of H3K56Ac (Table 1 screen). Type of test: cell-based, human. The settings on record: HCT116 screen; cell line not restated at the table. As to the method: as §5, §1, §2
A further test deals with T2, HDAC3 (Homo sapiens, UniProt O15379).
T2 construct: endogenous in cells; host or cells: HCT116
T2 sequence (O15379 whole entry): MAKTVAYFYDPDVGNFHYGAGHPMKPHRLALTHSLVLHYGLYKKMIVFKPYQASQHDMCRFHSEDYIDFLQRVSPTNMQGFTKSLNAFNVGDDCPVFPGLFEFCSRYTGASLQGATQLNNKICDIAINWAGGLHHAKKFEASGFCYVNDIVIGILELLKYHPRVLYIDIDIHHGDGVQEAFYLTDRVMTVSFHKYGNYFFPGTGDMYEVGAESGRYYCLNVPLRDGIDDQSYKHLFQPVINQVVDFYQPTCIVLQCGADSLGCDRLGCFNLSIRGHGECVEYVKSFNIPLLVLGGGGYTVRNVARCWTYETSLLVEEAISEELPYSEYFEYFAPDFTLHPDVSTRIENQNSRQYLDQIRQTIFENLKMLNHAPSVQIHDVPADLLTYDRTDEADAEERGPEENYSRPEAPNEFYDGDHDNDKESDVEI
In words: HDAC3 degradation in HCT116 cells, quantitative western blot. Type of test: cell-based. The settings on record: HCT-116, 24 h; HCT116, screened at 0.1, 1 and 10 μM; maximum degradation irrespective of concentration; read-out: HDAC 3 degrader (% Degradation). The method, then:
as §5, §1, §6

For another test, the target named is CoREST (Homo sapiens, UniProt Q13547). In words: HDAC inhibition assay, CoREST complex (Table 1, run under different conditions). The class given is biochemical. The settings on record: Table 1 conditions (differ from FIG. 3). The method, then: as §3, §4
CoREST, sequence (Q13547 whole entry, other chains not shown): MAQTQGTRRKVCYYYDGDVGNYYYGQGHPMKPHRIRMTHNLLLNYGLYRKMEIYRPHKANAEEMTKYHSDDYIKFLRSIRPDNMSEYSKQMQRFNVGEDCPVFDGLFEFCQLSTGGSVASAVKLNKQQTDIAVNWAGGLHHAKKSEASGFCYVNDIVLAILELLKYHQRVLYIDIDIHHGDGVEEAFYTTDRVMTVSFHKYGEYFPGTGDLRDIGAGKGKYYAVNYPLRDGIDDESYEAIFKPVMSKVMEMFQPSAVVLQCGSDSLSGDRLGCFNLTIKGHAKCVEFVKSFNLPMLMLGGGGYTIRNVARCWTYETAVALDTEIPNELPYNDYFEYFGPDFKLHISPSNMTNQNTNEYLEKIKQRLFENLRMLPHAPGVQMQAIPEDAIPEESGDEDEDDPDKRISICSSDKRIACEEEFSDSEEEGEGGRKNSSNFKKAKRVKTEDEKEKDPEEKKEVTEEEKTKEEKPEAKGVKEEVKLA
CoREST, sequence (Q9UKL0 86-485 partner limits assumed, other chains not shown): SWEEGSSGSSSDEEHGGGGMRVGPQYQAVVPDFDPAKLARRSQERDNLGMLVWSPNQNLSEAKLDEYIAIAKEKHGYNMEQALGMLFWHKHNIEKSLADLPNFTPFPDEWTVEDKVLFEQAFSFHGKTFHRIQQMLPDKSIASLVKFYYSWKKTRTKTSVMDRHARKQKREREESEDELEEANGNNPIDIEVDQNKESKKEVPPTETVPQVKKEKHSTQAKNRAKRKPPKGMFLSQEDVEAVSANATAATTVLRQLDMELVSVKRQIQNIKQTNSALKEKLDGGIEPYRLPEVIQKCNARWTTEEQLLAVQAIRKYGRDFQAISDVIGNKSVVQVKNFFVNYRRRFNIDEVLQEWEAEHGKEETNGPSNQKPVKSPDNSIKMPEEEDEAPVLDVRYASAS
The target in another test is SMRT (Homo sapiens, UniProt O15379). In words: HDAC inhibition assay, SMRT complex (Table 1). Type of test: biochemical.
SMRT, sequence (O15379 whole entry): as the sequence (O15379 whole entry) above
SMRT, sequence (Q9Y618 389-480 partner limits assumed): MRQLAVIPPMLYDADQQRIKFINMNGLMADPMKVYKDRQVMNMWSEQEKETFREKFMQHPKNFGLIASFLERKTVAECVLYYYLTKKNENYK
The next test addresses T3, HDAC1 (Homo sapiens, UniProt Q13547).
T3 construct: endogenous in cells; host or cells: HCT116
In words: HDAC1 degradation in HCT116 cells, quantitative western blot. The class given is cell-based. The settings on record: HCT116, screened at 0.1, 1 and 10 μM, maximum degradation irrespective of concentration; for Dmax: HCT-116, 24 h, read-out: HDAC1 Degrader (% Degradation). As to the method:
as §5, §1, §6

A further test deals with NuRD (Homo sapiens, UniProt Q13547). In words: HDAC inhibition assay, NuRD complex (Table 1). Type of test: biochemical.
NuRD, sequence (Q13547 whole entry): as the sequence (Q13547 whole entry, other chains not shown) above
NuRD, sequence (Q13330 162-546 partner limits assumed): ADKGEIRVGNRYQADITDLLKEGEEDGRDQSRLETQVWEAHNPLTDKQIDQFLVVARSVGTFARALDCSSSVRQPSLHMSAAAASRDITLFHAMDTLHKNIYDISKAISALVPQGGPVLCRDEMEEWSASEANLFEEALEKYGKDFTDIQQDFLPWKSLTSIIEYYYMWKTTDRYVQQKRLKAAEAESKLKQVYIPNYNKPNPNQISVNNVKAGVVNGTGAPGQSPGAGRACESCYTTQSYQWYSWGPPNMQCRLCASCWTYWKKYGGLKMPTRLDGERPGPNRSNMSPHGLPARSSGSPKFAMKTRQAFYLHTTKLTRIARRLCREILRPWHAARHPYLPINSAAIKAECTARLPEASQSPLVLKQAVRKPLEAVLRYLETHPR
NuRD, sequence (Q09028 whole entry partner): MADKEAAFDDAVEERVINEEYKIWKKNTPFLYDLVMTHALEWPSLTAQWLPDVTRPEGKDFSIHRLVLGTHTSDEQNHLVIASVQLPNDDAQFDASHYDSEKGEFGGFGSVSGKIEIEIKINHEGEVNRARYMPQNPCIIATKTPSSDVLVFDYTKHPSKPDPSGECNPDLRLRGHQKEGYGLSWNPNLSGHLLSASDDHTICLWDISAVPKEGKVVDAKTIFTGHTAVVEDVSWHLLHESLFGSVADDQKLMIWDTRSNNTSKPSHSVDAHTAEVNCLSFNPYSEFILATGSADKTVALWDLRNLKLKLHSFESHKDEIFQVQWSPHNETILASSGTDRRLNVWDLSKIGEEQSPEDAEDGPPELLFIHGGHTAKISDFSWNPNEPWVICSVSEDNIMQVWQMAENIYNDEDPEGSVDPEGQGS
For another test, the target named is MiDAC (Homo sapiens, UniProt Q13547). The experiment in a line: HDAC inhibition assay, MiDAC complex (Table 1). The class given is biochemical.
MiDAC, sequence (Q13547 whole entry): as the sequence (Q13547 whole entry, other chains not shown) above
MiDAC, sequence (Q6PJG2 628-887 partner limits assumed): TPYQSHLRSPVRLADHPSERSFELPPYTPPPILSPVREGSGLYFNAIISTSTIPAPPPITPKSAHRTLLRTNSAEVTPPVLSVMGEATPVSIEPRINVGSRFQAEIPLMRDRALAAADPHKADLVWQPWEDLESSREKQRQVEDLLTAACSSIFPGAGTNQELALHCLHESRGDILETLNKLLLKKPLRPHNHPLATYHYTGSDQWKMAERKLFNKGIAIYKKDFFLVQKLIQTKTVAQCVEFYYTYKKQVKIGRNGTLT
MiDAC, sequence (Q9H147 whole entry partner): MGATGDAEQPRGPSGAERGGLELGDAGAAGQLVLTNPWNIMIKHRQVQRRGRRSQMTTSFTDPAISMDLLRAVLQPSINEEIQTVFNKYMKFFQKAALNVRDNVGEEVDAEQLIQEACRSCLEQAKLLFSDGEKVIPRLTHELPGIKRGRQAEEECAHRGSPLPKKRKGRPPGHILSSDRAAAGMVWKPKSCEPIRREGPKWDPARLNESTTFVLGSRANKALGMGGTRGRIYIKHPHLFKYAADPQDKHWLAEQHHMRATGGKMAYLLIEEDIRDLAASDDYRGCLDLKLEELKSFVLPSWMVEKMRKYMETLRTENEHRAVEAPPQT

Structures are written as SMILES.

T3 sequence (Q13547 whole entry): as the sequence (Q13547 whole entry, other chains not shown) above
T1 sequence (Q92769 whole entry): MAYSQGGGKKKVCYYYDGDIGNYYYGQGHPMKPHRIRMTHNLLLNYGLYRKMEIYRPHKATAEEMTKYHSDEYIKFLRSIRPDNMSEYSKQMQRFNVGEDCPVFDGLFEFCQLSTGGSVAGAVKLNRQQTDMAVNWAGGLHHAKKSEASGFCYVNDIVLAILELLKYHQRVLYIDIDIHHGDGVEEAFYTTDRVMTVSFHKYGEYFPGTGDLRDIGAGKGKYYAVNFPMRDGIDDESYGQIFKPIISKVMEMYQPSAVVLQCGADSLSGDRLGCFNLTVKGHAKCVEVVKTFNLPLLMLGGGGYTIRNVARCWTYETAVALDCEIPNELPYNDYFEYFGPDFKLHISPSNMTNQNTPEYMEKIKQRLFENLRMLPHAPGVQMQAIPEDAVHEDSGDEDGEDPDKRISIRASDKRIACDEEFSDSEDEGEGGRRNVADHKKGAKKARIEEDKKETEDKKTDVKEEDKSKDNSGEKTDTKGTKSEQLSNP
LSD1-CoREST-HDAC1 complex, sequence (Q13547 whole entry, other chains not shown): as the sequence (Q13547 whole entry, other chains not shown) above
LSD1-CoREST-HDAC1 complex, sequence (Q9UKL0 86-485 partner limits assumed, other chains not shown): as the sequence (Q9UKL0 86-485 partner limits assumed, other chains not shown) above

Regarding `CC(=O)Nc1ccc(C(=O)Nc2ccccc2N)cc1` [CI-994, 4-acetamido-N-(2-aminophenyl)benzamide, reference compound], in the test on H3K56ac [1], the H3K56 acetylation level entry is “increased”.
As to `Nc1ccccc1NC(=O)c1ccc(NC(=O)CCCCCCCCCCCNC(=O)COc2cccc3c2C(=O)N(C2CCC(=O)NC2=O)C3=O)cc1` (stereo not drawn) [PROTAC2, N-(2-aminophenyl)-4-(12-(2-((2-(2,6-dioxopiperidin-3-yl)-1,3-dioxoisoindolin-4-yl)oxy)acetamido)dodecanamido)benzamide], in the test with H3K56ac [1], the H3K56 acetylation level entry is “increase in acetylation to similar levels”.
On to `CC(=O)Nc1ccc(C(=O)Nc2ccccc2NC(=O)OC(C)(C)C)cc1` [Compound 5, Tert-butyl (2-(4-acetamidobenzamido)phenyl)carbamate, reference compound], for which the HDAC inhibition entry in [2] was “no HDAC inhibition”.
With `Cc1ncsc1-c1ccc(CNC(=O)[C@@H]2C[C@@H](O)CN2C(=O)[C@@H](NC(=O)CCCCCCCCCCC(=O)Nc2ccc(C(=O)Nc3ccc(F)cc3N)cc2)C(C)(C)C)cc1` [PROTAC17, N1-(4-((2-amino-4-fluorophenyl)carbamoyl)phenyl)-N12-((S)-1-((2S,4R)-4-hydroxy-2-((4-(4-methylthiazol-5-yl)benzyl)carbamoyl)pyrrolidin-1-yl)-3,3-dimethyl-1-oxobutan-2-yl)dodecanediamide], the Dmax on HDAC2 was found to be 21%; at HDAC3, 46%; on HDAC1 it was 58%. For the same molecule, the “Increase H3K56Ac (Y/N/partial)” value in the test with H3K56Ac [3] was “partial”. Moreover, the concentration for half-maximal inhibition (IC50) (usually the concentration needed to halve the response being measured) against CoREST was 3810 nM; at SMRT, 860 nM.
For the molecule `Cc1ncsc1-c1ccc(CNC(=O)[C@@H]2C[C@@H](O)CN2C(=O)[C@@H](NC(=O)COCCCCCCCCC(=O)Nc2ccc(C(=O)Nc3ccccc3N)cc2)C(C)(C)C)cc1` [PROTAC13, (2S,4R)-1-((S)-2-(2-((9-((4-((2-aminophenyl)carbamoyl)phenyl)amino)-9-oxononyl)oxy)acetamido)-3,3-dimethylbutanoyl)-4-hydroxy-N-(4-(4-methylthiazol-5-yl)benzyl)pyrrolidine-2-carboxamide], the Dmax at HDAC2 came to 52%; on HDAC3 it was 69%; at HDAC1 it was 58%. For the same molecule, the concentration for half-maximal inhibition (IC50) against NuRD came out at 1180 nM; on CoREST it was 845 nM; on SMRT, 345 nM; against MiDAC, 1430 nM.
Turning to `Cc1ncsc1-c1ccc(CNC(=O)[C@@H]2C[C@@H](O)CN2C(=O)[C@@H](NC(=O)COCCCCCCCCCOCC(=O)Nc2ccc(C(=O)Nc3ccc(F)cc3N)cc2)C(C)(C)C)cc1` [PROTAC20, (2S,4R)-1-((S)-2-(2-((9-(2-((4-((2-amino-4-fluorophenyl)carbamoyl)phenyl)amino)-2-oxoethoxy)nonyl)oxy)acetamido)-3,3-dimethylbutanoyl)-4-hydroxy-N-(4-(4-methylthiazol-5-yl)benzyl)pyrrolidine-2-carboxamide], the Dmax on HDAC2 amounted to 26%; on HDAC3, 67%; on HDAC1, 51%. In addition, the “Increase H3K56Ac (Y/N/partial)” value in the test with H3K56Ac [3] is on record as “partial”.
Consider `CN[C@@H](C)C(=O)N[C@H](C(=O)N1C[C@@H](NC(=O)COCCOCCOCC(=O)Nc2ccc(C(=O)Nc3ccccc3N)cc2)C[C@H]1C(=O)N[C@@H]1CCCc2ccccc21)C1CCCCC1` [PROTAC28, (2S,4S)-4-(2-(2-(2-(2-((4-((2-aminophenyl)carbamoyl)phenyl)amino)-2-oxoethoxy)ethoxy)ethoxy)acetamido)-1-((S)-2-cyclohexyl-2-((S)-2-(methylamino)propanamido)acetyl)-N-((R)-1,2,3,4-tetrahydronaphthalen-1-yl)pyrrolidine-2-carboxamide], for which the “HDAC 2 Degrader (% Degradation)” value on HDAC2 is given as “No”. Also, in the test on H3K56Ac [3], the “Increase H3K56Ac (Y/N/partial)” value is on record as “partial”. Also, the Dmax on HDAC3 was determined as 57%. For the same molecule, the “HDAC1 Degrader (% Degradation)” value at HDAC1 is given as “No”.
